Test system: 885724-159-R-J1-PDC complex spheroid viability
Assay: Anticancer human tumor 885724-159-R-J1-PDC patient-derived pancreatic adenocarcinoma cell line growth inhibition [GQUAD]
Settings: for IC50: curve of first compound; for viability, T/C: stronger effect = lower value
Text: DNA G-quadruplex Stabilizer Agents in Combinations in Complex Spheroids
A high-throughput screen of multi-cell type tumor spheroids was designed to identify active combinations of DNA G-quadruplex stabilizer agents and targeted small molecules. Complex spheroids include a stromal component modeled by human endothelial cells (HUVEC) and fibroblasts modeled by human mesenchymal stem cells (MSCs). The concentration ranges selected for each drug and investigational agent were based upon clinically achievable concentrations if the clinical Cmax of the agent was known.
Compounds. The drugs and investigational agents: pidnarulex (CX-5461; NSC782164), APTO-253 (NSC789042), BRACO-19 (NSC847499), peposertib (NSC802822), ceralasertib (NSC780249), elimusertib (NSC800525), camonsertib (NSC841442), AZD-1390 (NSC803789), olaparib (NSC753686), talazoparib (NSC767125), ART-558 (NSC835418), sotorasib (NSC818433), MRTX-1133 (NSC836407), SN-38 (NSC673596), topotecan (NSC609699), etoposide (NSC141540), doxorubicin (NSC123127), gemcitabine (NSC613327), 5-fluorouracil (NSC19893), paclitaxel (NSC125973), vemurafenib (NSC761431), panobinostat (NSC761190), R-306465 (JNJ-16241199; NSC773264), adavosertib (NSC754352), TP-3654 (NSC805149), carboplatin (NSC241240), KSQ-4279 (NSC840948), and staurosporine (NSC755774) were obtained from the National Cancer Institute (NCI) Developmental Therapeutics Program Chemical Repository (34). The FDA-approved anticancer drug set is available from the NCI Developmental Therapeutics Program. […] The stock solutions were prepared in dimethyl sulfoxide (DMSO, Sigma-Aldrich, St. Louis, MO, cat. D2650) at 800-fold the tested concentration and stored at -70 degrees C prior to their use. All drugs and investigational agents were tested over a range starting from a high concentration at or near the clinical Cmax and decreasing in half-log increments. If the clinical Cmax for an agent had not been determined, the highest concentration tested was 10 microM.
2.3 Cell Culture. All cells were maintained in an incubator at 37 degrees C and 5% CO2 with 95% humidity. The PDC lines were cultured according to standard operating procedures established by the NCI PDMR. All PDCs were thawed and cultured in Matrigel-coated flasks prepared with a working solution of 1X Ham's F-12 nutrient mix, without supplementation (Invitrogen, cat. 11765054), 100 U/mL penicillin-streptomycin (Invitrogen, cat. 15140122), and 2.5% Matrigel (Corning Inc., cat. 354248) for the first three passages. The 857933-349-R-J2-PDC line was cultured in 6C/Colon 1B media, which includes advanced DMEM/F-12 (Thermo Fisher Scientific, cat. 12634028), 10 mM HEPES (Thermo Fisher Scientific, cat. 15630080), 1X GlutaMAX supplement (Thermo Fisher Scientific, cat. 35050061), 0.1 mg/mL primocin (InvivoGen, cat. ant-pm-2), 10% defined fetal bovine serum, heat inactivated (HyClone Laboratories Inc., cat. SH30070.03HI), 50% L-WRN conditioned media (ATCC, cat. CRL-3276), 1.25 mM N-Acetyl-L-cysteine (Sigma-Aldrich, cat. A9165), 10 mM nicotinamide (Sigma-Aldrich, cat. N0636), 1X B-27 supplement (Thermo Fisher Scientific, cat. 17504044), 1X N-2 supplement (Thermo Fisher Scientific, cat. 17502048), 10 microM Y-27632 dihydrochloride (Tocris Bioscience, cat. 1254), and 50 ng/mL human EGF recombinant protein (Thermo Fisher Scientific, cat. PHG0311). The 485176-168-R4-J1-PDC line was cultured in Panc media, which includes all 6C/Colon 1B media components plus 100 ng/mL human FGF-10 (Thermo Fisher Scientific, cat. 100-26), 500 nM SB-431542 (Selleckchem, cat. S1067), and gastrin (Tocris, cat. 3006).
[…]

[1] = second compound 0.0316 µM, first compound 0.0316 µM
[2] = second compound 0.0316 µM, first compound 0.316 µM
[3] = second compound 0.1 µM, first compound 0.0316 µM
[4] = second compound 0.1 µM, first compound 0.316 µM
[5] = second compound 0.316 µM, first compound 0.0316 µM
[6] = second compound 0.316 µM, first compound 0.316 µM
[7] = second compound 1 µM, first compound 0.0316 µM
[8] = second compound 1 µM, first compound 0.316 µM
[9] = second compound 3.16 µM, first compound 0.0316 µM
[10] = second compound 3.16 µM, first compound 0.316 µM
[11] = second compound 10 µM, first compound 0.0316 µM
[12] = second compound 10 µM, first compound 0.316 µM
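Further: spheroids exposed to agents for seven days before readout.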
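Wherever viability, T/C is given: percent of vehicle control viability where 100% = DMSO wells.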

Cc1[nH]c2ccccc2c1CCNCc1ccc(/C=C/C(=O)NO)cc1 + Cc1cnc(CNC(=O)c2c(=O)c3ccc(N4CCCN(C)CC4)nc3n3c2sc2ccccc23)cn1
IC50 (second compound 0.0316 µM): 291 nM
IC50 (second compound 0.1 µM): 241 nM
IC50 (second compound 0.316 µM): 193 nM
IC50 (second compound 1 µM): 137 nM
IC50 (second compound 3.16 µM): 93.5 nM
IC50 (second compound 10 µM): 23.8 nM
viability, T/C (second compound 0.0316 µM, first compound 0.000999 µM): 111%
viability, T/C (second compound 0.0316 µM, first compound 0.00316 µM): 103%
viability, T/C (second compound 0.0316 µM, first compound 0.00999 µM): 89.7%
viability, T/C [1]: 95.4%
viability, T/C (second compound 0.0316 µM, first compound 0.0999 µM): 97.5%
viability, T/C [2]: 46.4%
viability, T/C (second compound 0.1 µM, first compound 0.000999 µM): 100%
viability, T/C (second compound 0.1 µM, first compound 0.00316 µM): 114%
viability, T/C (second compound 0.1 µM, first compound 0.00999 µM): 117%
viability, T/C [3]: 98.8%
viability, T/C (second compound 0.1 µM, first compound 0.0999 µM): 67.2%
viability, T/C [4]: 44.7%
viability, T/C (second compound 0.316 µM, first compound 0.000999 µM): 107%
viability, T/C (second compound 0.316 µM, first compound 0.00316 µM): 103%
viability, T/C (second compound 0.316 µM, first compound 0.00999 µM): 102%
viability, T/C [5]: 83.1%
viability, T/C (second compound 0.316 µM, first compound 0.0999 µM): 72.8%
viability, T/C [6]: 34.5%
viability, T/C (second compound 1 µM, first compound 0.000999 µM): 90%
viability, T/C (second compound 1 µM, first compound 0.00316 µM): 78.6%
viability, T/C (second compound 1 µM, first compound 0.00999 µM): 75.8%
viability, T/C [7]: 71.5%
viability, T/C (second compound 1 µM, first compound 0.0999 µM): 53.5%
viability, T/C [8]: 37%
viability, T/C (second compound 3.16 µM, first compound 0.000999 µM): 79.3%
viability, T/C (second compound 3.16 µM, first compound 0.00316 µM): 72.5%
viability, T/C (second compound 3.16 µM, first compound 0.00999 µM): 68%
viability, T/C [9]: 63.6%
viability, T/C (second compound 3.16 µM, first compound 0.0999 µM): 49.3%
viability, T/C [10]: 30.6%
viability, T/C (second compound 10 µM, first compound 0.000999 µM): 69.1%
viability, T/C (second compound 10 µM, first compound 0.00316 µM): 73.7%
viability, T/C (second compound 10 µM, first compound 0.00999 µM): 56.9%
viability, T/C [11]: 46.1%
viability, T/C (second compound 10 µM, first compound 0.0999 µM): 35.4%
viability, T/C [12]: 23.8%

COc1ccc([C@@H](O)c2cc(-c3ncnc4cc(N5CCOCC5)ccc34)c(F)cc2Cl)nn1 + CN(C)c1ccc(Nc2c3ccc(NC(=O)CCN4CCCC4)cc3nc3cc(NC(=O)CCN4CCCC4)ccc23)cc1
IC50 (second compound 0.0316 µM): 6350 nM
IC50 (second compound 0.1 µM): 4790 nM
IC50 (second compound 0.316 µM): 5210 nM
IC50 (second compound 1 µM): 3020 nM
IC50 (second compound 3.16 µM): 3140 nM
IC50 (second compound 10 µM): 2730 nM
viability, T/C [1]: 88.5%
viability, T/C (second compound 0.0316 µM, first compound 0.1 µM): 89%
viability, T/C [2]: 79.8%
viability, T/C (second compound 0.0316 µM, first compound 1 µM): 85.3%
viability, T/C (second compound 0.0316 µM, first compound 3.16 µM): 58.4%
viability, T/C (second compound 0.0316 µM, first compound 10 µM): 44.6%
viability, T/C [3]: 95.7%
viability, T/C (second compound 0.1 µM, first compound 0.1 µM): 90.5%
viability, T/C [4]: 95.7%
viability, T/C (second compound 0.1 µM, first compound 1 µM): 73.5%
viability, T/C (second compound 0.1 µM, first compound 3.16 µM): 59%
viability, T/C (second compound 0.1 µM, first compound 10 µM): 36.9%
viability, T/C [5]: 89.3%
viability, T/C (second compound 0.316 µM, first compound 0.1 µM): 82.3%
viability, T/C [6]: 79.2%
viability, T/C (second compound 0.316 µM, first compound 1 µM): 70.7%
viability, T/C (second compound 0.316 µM, first compound 3.16 µM): 62.8%
viability, T/C (second compound 0.316 µM, first compound 10 µM): 36.3%
viability, T/C [7]: 78.9%
viability, T/C (second compound 1 µM, first compound 0.1 µM): 84.1%
viability, T/C [8]: 82.7%
viability, T/C (second compound 1 µM, first compound 1 µM): 70.2%
viability, T/C (second compound 1 µM, first compound 3.16 µM): 49.6%
viability, T/C (second compound 1 µM, first compound 10 µM): 30.2%
viability, T/C [9]: 71.6%
viability, T/C (second compound 3.16 µM, first compound 0.1 µM): 70.9%
viability, T/C [10]: 73.7%
viability, T/C (second compound 3.16 µM, first compound 1 µM): 60.4%
viability, T/C (second compound 3.16 µM, first compound 3.16 µM): 50.9%
viability, T/C (second compound 3.16 µM, first compound 10 µM): 29.6%
viability, T/C [11]: 72.9%
viability, T/C (second compound 10 µM, first compound 0.1 µM): 81.5%
viability, T/C [12]: 69.5%
viability, T/C (second compound 10 µM, first compound 1 µM): 62.2%
viability, T/C (second compound 10 µM, first compound 3.16 µM): 49%
viability, T/C (second compound 10 µM, first compound 10 µM): 25.2%

From PubChem BioAssay AID2060502 (Molecular Pharmacology Branch, DTP, NCI, 2025)
